Assay results published in PMC6724035, “Evaluation of Tumor-Targeting Properties of an Antagonistic Bombesin Analogue RM26 Conjugated with a Non-Residualizing Radioiodine Label Comparison with a Radiometal-Labelled Counterpart” (Pharmaceutics, 2019).
Where a SMILES comes first, the peptide text is derived from it. [ ]: non-standard residue; d: D form. Tyr(3-I) = N[C@@H](Cc1ccc(O)c(I)c1)C(=O)O; Sta = CC(C)C[C@H](N)[C@@H](O)CC(=O)O; AEEA = NCCOCCOCC(=O)O

What was measured:
Type in all cases: cell-based, human
PC-3 cells [1] = experiment: Cell-associated radioactivity in presence of lysosomotropic bases or sodium azide/2-deoxyglucose; details: 1 nM, 100 µM chloroquine, 20 mM ammonium chloride, 2-8 h at 37 °C
Protocol: Additionally, PC-3 cells were incubated with 1 nM of [^125I]I-Tyr-PEG2-RM26 in presence of 20 mM sodium azide/10 mM 2-deoxyglucose at 37 °C for 8 h. […] At predetermined time points (2, 4, and 8 h), media from a set of three dishes was removed, cells were detached by trypsin-EDTA solution, re-suspended, and radioactivity in cells was measured.

DU-145 cells = experiment: In vitro binding specificity assay; details: 1 nM, 1 h at 37 °C; 200-fold excess NOTA-PEG4-RM26 for blocking
Protocol: (§1) The in vitro binding specificity test of [^125I]I-Tyr-PEG2-RM26 was performed on PC-3 and DU-145 cell lines. […] The cells were incubated with 1 nM concentration of [^125I]I-Tyr-PEG2-RM26 solution for 1 h at 37 °C. To saturate GRPR, one set of dishes was treated with 200-fold molar excess of non-labelled peptide, NOTA-PEG4-RM26, 15 min before adding the radiolabelled compound. After washing with serum-free media, cells were detached by treatment with 1 mL trypsin-EDTA solution twice. Cell-associated radioactivity was measured in the gamma-counter and presented as percentage of cell-associated activity.

PC-3 cells [2] = experiment: In vitro binding specificity assay; details: 1 nM, 1 h at 37 °C; 200-fold excess NOTA-PEG4-RM26 for blocking
Protocol: as §1

For `CC(C)C[C@H](NC(=O)C[C@H](O)[C@H](CC(C)C)NC(=O)[C@H](Cc1c[nH]cn1)NC(=O)CNC(=O)[C@@H](NC(=O)[C@H](C)NC(=O)[C@H](Cc1c[nH]c2ccccc12)NC(=O)[C@H](CCC(N)=O)NC(=O)[C@@H](Cc1ccccc1)NC(=O)COCCOCCNC(=O)[C@@H](N)Cc1ccc(O)c(I)c1)C(C)C)C(N)=O` [[^125I]I-Tyr-PEG2-RM26] (H-[Tyr(3-I)][AEEA][dF]QWAVGH[Sta]L-NH2), the “Cell-bound activity and retention in presence of chloroquine and ammonium chloride vs control” value (PC-3 cells [1]) was “considerably higher compared to control”, the “Binding specificity to DU-145 cells” value (DU-145 cells) was “receptor mediated” and the “Binding specificity to PC-3 cells” value (PC-3 cells [2]) was “receptor mediated”.
